# Patent US9861103B2, “Combination of pethoxamid and picloram” (CHEMINOVA A/S, priority 2013, dated 2018)
# Test system: Galium aparine
# Experiment: Field trials in winter oilseed rape: visually estimated weed control of Galium aparine, synergy by the Colby method
# Assay type: in vivo
# Settings: pethoxamid 1200 g a.i/ha, picloram 23 g a.i/ha, A + B 1200 + 23 g/ha
# From the text: Two field trials are established in commercial fields of winter oilseed rape Brassica napus, at sites known to contain natural populations of broad-leaved weeds, including Galium aparine. Plots, with a minimum size of 18 m^2, are arranged with three replicates per treatment.
# At each trial, each treatment is applied using a small plot sprayer fitted with flatfan nozzles in a spray volume of 200 l/ha at one of three treatment timings: Timing A—early post-emergence of the oilseed rape, when the crop is at cotyledon to one true leaf stage (BBCH10/11) and pre-emergence of G. aparine; Timing B—when the crop has two true leaves (BBCH 12) of the crop and at emergence of G. aparine (BBCH09-10). Full application details are recorded, including weather and soil conditions, as well as growth stages and populations of crop and weed species.
# Weed control is then assessed by visually estimating the control, as a percentage, relative to the ground cover and vigour of each weed species in the untreated plots. The weed control evaluation is made at 24-27 days, 40-46 days, 54-60 days and 75-81 days after treatment Timing A.
# The data is then analysed using the Colby method to determine synergy.
# [1] = Timing A (crop BBCH10/11, pre-emergence of G. aparine), 24-27 days after Timing A
# [2] = Timing A (crop BBCH10/11, pre-emergence of G. aparine), 40-46 days after Timing A
# [3] = Timing A (crop BBCH10/11, pre-emergence of G. aparine), 54-60 days after Timing A
# [4] = Timing A (crop BBCH10/11, pre-emergence of G. aparine), 75-81 days after Timing A
# [5] = Timing B (crop BBCH 12, at emergence of G. aparine BBCH09-10), 24-27 days
# [6] = Timing B (crop BBCH 12, at emergence of G. aparine BBCH09-10), 40-46 days
# [7] = Timing B (crop BBCH 12, at emergence of G. aparine BBCH09-10), 75-81 days
SMILES,Weed control (visual estimate relative to untreated plots) [1] [%],Weed control (visual estimate relative to untreated plots) [2] [%],Weed control (visual estimate relative to untreated plots) [3] [%],Weed control (visual estimate relative to untreated plots) [4] [%],Weed control (visual estimate relative to untreated plots) [5] [%],Weed control (visual estimate relative to untreated plots) [6] [%],Weed control (visual estimate relative to untreated plots) [7] [%]
CCOCCN(C(=O)CCl)C(=C(C)C)c1ccccc1 [pethoxamid],56.67,20,43.33,23.33,20,6.67,50
Nc1c(Cl)c(Cl)nc(C(=O)O)c1Cl [picloram],0,0,30,30,10,6.67,43.33
